Laboratory results from patent US20240182475A1 (Université de Lausanne, priority 2021, published 2024).

Legend:
[1] = molecular target: recombinant human CSE (Homo sapiens, UniProt P32929); experiment: CSE activity (AzMC probe assay), H2S production by recombinant human CSE; type: biochemical; settings: for CSE activity (AZMC probe assay) % of activation: (RFU compound max - RFU compound 0/RFU CSE 2 ug - RFU compound 0)*100; for EC50: EC50 calculated by the four-parameter logistic model
Experimental: The activity of recombinant human CSE (rCSE) was tested in the presence of C5, compound 8 (50 uM), Z20 compound 13 (50 uM) or vehicle (DMSO). Briefly, compounds were added in reaction buffer (50 mM Tris-HCl, pH 8) containing 2 μg of rCSE, 10 mM CSE substrate L-cysteine, 5 uM pyridoxal 5′-phosphate (PLP). After addition of 10 μM of the H2S sensitive fluorescent probe 7-azido-4-methylcoumarin (AzMC) in a total volume of 100 μl, fluorescence was immediately measured in kinetic mode for 2 h at 37° C. with SpectraMax M5 reader, with excitation and emission wavelengths of 365 nm and 450 nm, respectively. Statistical analysis was determined using simple linear regression with p<0.0001 for C5 vs. vehicle and p<0.0002 for Z20 vs. vehicle.
Recombinant human CSE (1 μg/well) was incubated with various concentrations of compounds (all in final 0.1% DMSO), or with 0.1% DMSO as a control, in 10 mM sodium phosphate buffer pH 8.2. Next, 10 mM L-cysteine and 1 mM PLP and 10 μM of the probe AzMC were then added to reach 100 μL total volume. Fluorescence was measured for 3 h at 37° C. with excitation and emission wavelengths of 365 nm and 450 nm, respectively, in a 96-well half area black plate with transparent bottom.
Dose-response curve of each compound was performed, using triplicate wells for each tested doses. The background (10 mM sodium phosphate buffer with L-cysteine, PLP and AzMC) was subtracted from all values. Each mean value was converted to percent activity (0% defined as the smallest mean in each data set, 100% defined as the highest mean in each data set). The data were normalized using the four parameter logistic model (4PL) equation to calculate EC50 using GraphPad Prism.

[2] = system: MOVAS cells; experiment: MOVAS cell calcification assay (Alizarin red); type: cell-based, mouse; settings: Mus musculus, MOVAS, read-out: Calcification assay Max calcification inhibition (%) at the indicated dose of compound
Experimental: A) Alizarin red staining of MOVAS cells stimulated with sCPP for 24 h in DMEM+10% FBS and treated or not with 50 uM of compounds. […] Statistical analysis was determined using one-way ANOVA with ***p<0.001. C) Percentage of cytotoxicity (LDH %) in MOVAS treated or not with compounds for 24 h. D) MOVAS cells were seeded onto half-area 96-well plate and incubated overnight. Then C5 or C6 at 50 uM or vehicle (DMSO), L-cysteine at 10 mM, PLP at 5 uM and the H2S sensitive fluorescent probe AzMC at 10 μM were added. The fluorescence was immediately measured in kinetic mode for 2 h at 37° C. with SpectraMax M5 reader, with excitation and emission wavelengths of 365 nm and 450 nm, respectively.
A) Alizarin red staining of Movas cells stimulated with sCPP for 24 h in DMEM+10% FBS and treated or not with 50 uM of Z20. […] C) Percentage of cytotoxicity (LDH %) in murine chondrocytes treated or not with Z20 for 24 h. Statistical analysis was determined using one-way ANOVA with ***p<0.001.
Alizarin red staining of MOVAS cells stimulated with sCPP for 24 h in DMEM+10% FBS and treated or not with different concentrations of compounds (A: C6) and (B: Z20). The graphs show Alizarin red absorbance at 570-630 nm. Statistical analysis was determined using one-way ANOVA with *p<0.05, **p<0.01, ***p<0.001.
CPP were generated by preparing 20 ml DMEM containing 10% FBS, 1 mmol/L CaCl2, 3.5 mmol/L inorganic phosphate (1.36 mmol/L NaH2PO4 and 2.14 mmol/L Na2HPO4) (Aghagolzadeh et al. Atherosclerosis, 2016). After 7 days incubation at 37° C., the suspension was centrifuged at 25000 g for 2 h at 4° C., and the pellet containing CPP was resuspended in 1 ml DMEM and stored at −20° C. until further use.
Mouse vascular smooth muscle cell line (MOVAS) cells were cultured according to the manufacturer's guidelines in DMEM culture medium supplemented with 10% FBS. Cells were cultured at 37° C. in a humidified atmosphere with 5% CO2. All cell culture experiments in 96-well plates were performed in triplicates and were repeated independently two times.
For calcification experiments, cells were seeded in 96-well plates at a density of 50,000 cells/well and left to attach for 18 h. Calcification of cell monolayers was induced by CPP (equivalent to 50 μg Ca/mL) for 24 h at 37° C., 5% CO2 in presence of various concentrations of compounds (all in final 0.1% DMSO), or of 0.1% DMSO as a control, to reach a final volume of 200 μl/well. Calcium deposition was assessed by 0.5% w/v Alizarin Red staining (pH 4.2). Briefly, after PBS washing, methanol fixation for 10 min at 4° C., and milli-Q water washing, cells were incubated for 60 min with 200 μL Alizarin Red solution and then washed four times with milli-Q water. Quantification was performed after crystal dissolution with cetylpyridinium chloride (10%) for 18 h. The absorbance was measured at 570 and 630 nm using the Spectramax M5e reader (Molecular Devices). The background (alizarin red staining obtained with cells in the absence of CPP) was subtracted from all values.

[3] = system: MOVAS cells; experiment: Cytotoxicity assay, LDH release; type: cell-based, mouse
Experimental: A) Alizarin red staining of MOVAS cells stimulated with CPP for 24 h in DMEM+10% FBS in presence of different concentrations of compound 22401. […] The background (Alizarin red staining obtained with cells in the absence of CPP) was subtracted from all values. B) Percentage of cytotoxicity, as measured by LDH release, in MOVAS cells in the same conditions as A). Statistical analysis was determined using one-way ANOVA with *p<0.05, **p<0.01, ***p<0.001.
Measurement of lactate dehydrogenase (LDH) as a means of cytotoxicity assay was performed with using CytoTox-ONE Homogeneous Membrane Integrity Assay (Promega) according to the manufacturer's instructions. Values were calculated as percentage of cytotoxicity using the following formula: [(value in sample)−(background)]/[(value in Triton X-100-treated sample)−(background)]×100.

Chain of recombinant human CSE (P32929 whole entry): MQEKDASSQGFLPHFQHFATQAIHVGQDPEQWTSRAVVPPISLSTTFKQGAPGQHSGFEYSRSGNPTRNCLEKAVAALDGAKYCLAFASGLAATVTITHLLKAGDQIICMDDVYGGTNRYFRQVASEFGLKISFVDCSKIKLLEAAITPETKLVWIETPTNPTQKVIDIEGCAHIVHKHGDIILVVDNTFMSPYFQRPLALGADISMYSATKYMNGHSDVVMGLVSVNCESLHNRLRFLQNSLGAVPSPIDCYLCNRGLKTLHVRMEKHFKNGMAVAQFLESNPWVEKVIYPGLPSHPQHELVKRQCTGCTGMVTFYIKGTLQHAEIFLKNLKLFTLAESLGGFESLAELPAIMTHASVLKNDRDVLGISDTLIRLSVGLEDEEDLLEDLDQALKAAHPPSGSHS

Compound	CSE activity (AZMC probe assay) % of activation [1]	EC50 [1]	Cytotoxicity assay LDH release (% of cytotoxicity) ([3]; no dose given)	other results
CCn1cnc2c(Nc3cnn(CC4CCCO4)c3)ncnc21 (centres unmarked) [Compound 19, 9-ethyl-N-(1-((tetrahydrofuran-2-yl)methyl)-1H-pyrazol-4-yl)-9H-purin-6-amine]	28%	41.8 nM		inhibition at 50 µM ([2]; at 50 uM): 48%; Cytotoxicity assay LDH release (% of cytotoxicity) ([3]; at 50 uM): 15% at
c1cc(Nc2cnn(CC3CCCO3)c2)ncn1 (centres unmarked) [Compound 20, N-(1-((tetrahydrofuran-2-yl)methyl)-1H-pyrazol-4-yl)pyrimidin-4-amine]	46%	21 nM		inhibition at 20 µM [2]: 23%; Cytotoxicity assay LDH release (% of cytotoxicity) ([3]; at 20 uM): 16% at
CCn1cnc2c(Nc3cnn(C)c3)ncnc21 [Compound 25, 9-ethyl-N-(1-methyl-1H-pyrazol-4-yl)-9H-purin-6-amine]	56%	26 nM	20%	
Cn1cc(Nc2ncccn2)cn1 [Compound 26, N-(1-methyl-1H-pyrazol-4-yl)pyrimidin-2-amine]	57%	38.5 nM	20%	
CCn1cnc2c(Nc3cnn(CC4CCCCC4)c3)ncnc21 [Compound 30, N-(1-(cyclohexylmethyl)-1H-pyrazol-4-yl)-9-ethyl-9H-purin-6-amine]	39%	31.8 nM		inhibition at 20 µM [2]: 80%; Cytotoxicity assay LDH release (% of cytotoxicity) ([3]; at 20 uM): 5% at
c1cnc(Nc2cnn(CC3CCCCC3)c2)nc1 [Compound 31, N-(1-(cyclohexylmethyl)-1H-pyrazol-4-yl)pyrimidin-2-amine]	61%	67.4 nM	15%	
c1cnc(Nc2cnn(CC3CCCO3)c2)nc1 (centres unmarked) [Compound 32]	76%	35.2 nM		inhibition at 2 µM ([2]; at 2 uM): 36%; Cytotoxicity assay LDH release (% of cytotoxicity) ([3]; at 2 uM): 15% at
CCCn1cc(Nc2ncnc3c2ncn3CC)cn1 [Compound 33, 9-ethyl-N-(1-propyl-1H-pyrazol-4-yl)-9H-purin-6-amine]	59%	19.7 nM	20%	
CCn1cnc2c(Nc3cnn(Cc4ccccn4)c3)ncnc21 [Compound 34, 9-ethyl-N-(1-(pyridin-2-ylmethyl)-1H-pyrazol-4-yl)-9H-purin-6-amine]	35%	31.7 nM	20%	
O=[N+]([O-])c1ccc(Nc2cnn(CC3CCCO3)c2)cc1 (centres unmarked) [Compound 35, N-(4-nitrophenyl)-1-((tetrahydrofuran-2-yl)methyl)-1H-pyrazol-4-amine]	109%	43 nM		inhibition at 0.3 µM [2]: 23%; Cytotoxicity assay LDH release (% of cytotoxicity) ([3]; at 0.3 uM): 4% at
CCn1cnc2c(Nc3cnn(CCOC)c3)ncnc21 [Compound 47, 9-ethyl-N-(1-(2-methoxyethyl)-1H-pyrazol-4-yl)-9H-purin-6-amine]	106%	38.9 nM		inhibition at 20 µM [2]: 37%; Cytotoxicity assay LDH release (% of cytotoxicity) ([3]; at 20 uM): 25% at

Now from value to compound, other results behind:

CSE activity (AZMC probe assay) % of activation [1]	EC50 [1]	Compound	Cytotoxicity assay LDH release (% of cytotoxicity) ([3]; no dose given)	other results
62%	15.8 nM	O=C(Nc1cnn(CC2CCCO2)c1)c1ccccc1 (centres unmarked) [Compound 36, N-(1-((tetrahydrofuran-2-yl)methyl)-1H-pyrazol-4-yl)benzamide]		inhibition at 0.07 µM ([2]; at 0.07 uM): 42%; Cytotoxicity assay LDH release (% of cytotoxicity) ([3]; at 0.07 uM): 12% at
33%	137 nM	O=C(Nc1cnn(CC2CCCO2)c1)c1cccc(F)c1 (centres unmarked) [Compound 39, 3-fluoro-N-(1-((tetrahydrofuran-2-yl)methyl)-1H-pyrazol-4-yl)benzamide]		inhibition at 20 µM [2]: 30%; Cytotoxicity assay LDH release (% of cytotoxicity) ([3]; at 20 uM): 8% at
65%	4.4 nM	O=C(Nc1cnn(CC2CCCO2)c1)c1ccc2ccccc2c1 (centres unmarked) [Compound 40, N-(1-((tetrahydrofuran-2-yl)methyl)-1H-pyrazol-4-yl)-2-naphthamide]		inhibition at 0.3 µM [2]: 56%; Cytotoxicity assay LDH release (% of cytotoxicity) ([3]; at 0.3 uM): 10% at
73%	29 nM	O=C(Nc1cnn(CC2CCCO2)c1)c1cccc2[nH]ccc12 (centres unmarked) [Compound 44, N-(1-((tetrahydrofuran-2-yl)methyl)-1H-pyrazol-4-yl)-1H-indole-4-carboxamide]		inhibition at 0.3 µM [2]: 37%; Cytotoxicity assay LDH release (% of cytotoxicity) ([3]; at 0.3 uM): 12% at
59%	39.6 nM	N#Cc1cccc(C(=O)Nc2cnn(CC3CCCO3)c2)c1 (centres unmarked) [Compound 45, 3-cyano-N-(1-((tetrahydrofuran-2-yl)methyl)-1H-pyrazol-4-yl)benzamide]		inhibition at 5 µM ([2]; at 5 uM): 57%; Cytotoxicity assay LDH release (% of cytotoxicity) ([3]; at 5 uM): 12% at
